Laboratory results reported in ChEMBL document CHEMBL1201862, “PubChem BioAssay data set” (2004).
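Where inhibition never reached the appropriate level, the endpoint shown equals the highest concentration tested. Otherwise, values were interpolated linearly from a five-concentration, 48-hour dose response in 96-well plates. At the GI50, growth is halved.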 Calls of active or inactive are those of the source. No stated cut-off is given here; in the data, active = GI50 up to about 1.1 µM and inactive = higher. Where a SMILES comes first, the peptide text is derived from it. The star is where a group is joined. Cbz = O=C(OCc1ccccc1)*; Boc = CC(C)(C)OC(=O)*; Bn = c1ccc(C*)cc1

What was measured:
Assay in all cases: NCI-60 cell line screen, 48 h
[1] = test system: UO-31
[2] = test system: UACC-62
[3] = test system: OVCAR-5
[4] = test system: PC-3
[5] = test system: COLO 205
[6] = test system: HOP-92
[7] = test system: MCF7
[8] = test system: Malme-3M
[9] = test system: IGROV-1
[10] = test system: EKVX
[11] = test system: MOLT-4
[12] = test system: A498
[13] = test system: MDA-MB-231
[14] = test system: A549
[15] = test system: OVCAR-4
[16] = test system: LOX IMVI
[17] = test system: HOP-62
[18] = test system: SF-539
[19] = test system: U-251
[20] = test system: HCC 2998

Measured: GI50

COc1cc(/C=C2\Cc3cc(OC)c(OC)cc3C2=O)cc(OC)c1
inactive: [1] > 100 µM | [2] 14.2 µM | [3] > 100 µM | [4] > 79.1 µM | [5] > 46.7 µM | [6] 22.8 µM | [7] > 86.5 µM | [8] 15.8 µM | [9] 5.93 µM | [10] > 100 µM | [11] > 100 µM | [12] 36.8 µM | [13] 36.3 µM | [14] > 96.6 µM | [15] > 45.4 µM | [16] > 55.7 µM | [17] 15.8 µM | [18] 13.1 µM | [19] 35.8 µM

COc1ccc(Nc2nc3c([nH]2)c(=O)n(C)c(=O)n3C)cc1
inactive: [2] > 10 µM | [4] > 10 µM | [5] > 10 µM | [6] > 10 µM | [7] > 10 µM | [8] > 10 µM | [9] > 10 µM | [10] > 10 µM | [11] > 10 µM | [13] > 10 µM | [14] > 10 µM | [20] > 10 µM | [15] > 10 µM | [16] > 10 µM | [17] > 10 µM

O=C(C/N=C(\CN(c1ccccc1)c1ccccc1)Oc1ccc(Cl)cc1Cl)n1ccnc1
inactive: [1] > 100 µM | [2] > 100 µM | [3] > 100 µM | [4] > 100 µM | [5] > 100 µM | [6] 63 µM | [7] > 100 µM | [8] > 100 µM | [9] > 100 µM | [10] > 100 µM | [11] > 100 µM | [12] > 100 µM | [13] > 100 µM | [14] > 100 µM | [15] > 100 µM | [16] > 100 µM | [17] > 100 µM | [18] > 100 µM | [19] > 100 µM

Cc1ccc(SCC(OCn2cnc3c(Cl)nc(N)nc32)[C@H](C)F)cc1 (stereo not given in full)
inactive: [1] 59.3 µM | [2] > 100 µM | [3] > 100 µM | [4] 60.5 µM | [5] > 100 µM | [6] 63.7 µM | [7] 29.9 µM | [8] 88.9 µM | [9] > 100 µM | [11] 18.9 µM | [13] 46.7 µM | [14] 69.5 µM | [20] > 100 µM | [15] 71.3 µM | [16] > 100 µM | [17] > 100 µM | [18] > 100 µM | [19] 98.4 µM

O=C(O)Cc1ccc(/N=N/c2c(O)c(C(=O)O)cc3ccccc23)cc1
inactive: [1] > 100 µM | [2] > 100 µM | [3] > 100 µM | [4] > 100 µM | [5] > 100 µM | [6] > 100 µM | [7] > 100 µM | [8] 24.8 µM | [9] > 100 µM | [10] > 100 µM | [11] > 100 µM | [13] > 100 µM | [14] > 100 µM | [20] > 100 µM | [15] > 100 µM | [17] > 100 µM | [18] > 100 µM | [19] > 100 µM

COC(=O)CSc1[nH]c2nc(C)nc(Nc3ccccc3)c2c1C#N
inactive: [2] > 10 µM | [4] > 10 µM | [5] > 10 µM | [6] 9.42 µM | [7] > 10 µM | [8] > 10 µM | [9] > 10 µM | [10] > 10 µM | [11] > 10 µM | [13] > 10 µM | [14] > 10 µM | [20] > 10 µM | [15] > 10 µM | [16] > 10 µM | [17] > 10 µM

O=S(=O)(O)c1ccc(/N=N/c2ccc(/N=N/c3c(O)c(S(=O)(=O)O)cc4cc(S(=O)(=O)O)ccc34)cc2)cc1
inactive: [1] > 100 µM | [2] > 100 µM | [3] > 100 µM | [4] > 100 µM | [5] > 100 µM | [6] > 100 µM | [7] > 100 µM | [8] > 100 µM | [9] > 100 µM | [10] > 100 µM | [11] > 100 µM | [13] > 100 µM | [14] > 100 µM | [20] > 100 µM | [15] > 100 µM | [17] > 100 µM | [18] > 100 µM | [19] > 100 µM

CC(C)(C)C(=O)CP(=O)(O)O
inactive: [2] > 100 µM | [3] > 100 µM | [4] > 100 µM | [5] > 100 µM | [6] > 100 µM | [7] > 100 µM | [8] > 100 µM | [9] > 100 µM | [10] > 100 µM | [11] > 100 µM | [12] > 100 µM | [13] > 100 µM | [14] > 100 µM | [15] > 100 µM | [16] > 100 µM | [17] > 100 µM | [18] > 100 µM | [19] > 100 µM

Cc1cc(-c2nc3c(O)cccc3s2)ccc1N
inactive: [1] 15.8 µM | [2] 12.2 µM | [4] 21.2 µM | [5] 38.7 µM | [6] 18.8 µM | [7] 13 µM | [9] 17 µM | [10] 20.2 µM | [11] 25.4 µM | [13] 22.9 µM | [14] 19.1 µM | [20] 32.8 µM | [16] 17.3 µM | [17] 25.6 µM | [18] 47.9 µM | [19] 29.6 µM

COc1cc2c(cc1OCCCN1CCOCC1)N=C[C@@H]1CCCN1C2=O
inactive: [1] 11.5 µM | [2] 12.8 µM | [3] 15.5 µM | [4] 18.6 µM | [5] 1.87 µM | [6] 2.37 µM | [7] 7.24 µM | [8] 8.3 µM | [10] 19.4 µM | [11] 4.91 µM | [12] 10.1 µM | [13] 11 µM | [14] 35.7 µM | [15] 13.3 µM | [16] 4.48 µM | [17] 12.5 µM | [18] 4.7 µM | [19] 4.41 µM

CC(C)(C)OC(=O)NC(Cc1ccc(OCc2ccccc2)cc1)C(=O)NC(CCCCNC(=O)OCc1ccccc1)C(=O)O (stereo not given) (Boc-Tyr(Bn)-Lys(Cbz)-OH; configuration not given here)
inactive: [1] 73.8 µM | [2] 20.5 µM | [3] > 100 µM | [4] 68.1 µM | [5] 29.5 µM | [6] 16.4 µM | [7] 34.6 µM | [8] 94.2 µM | [9] 34 µM | [10] > 100 µM | [11] 28 µM | [13] > 100 µM | [14] > 100 µM | [20] 35.3 µM | [17] 61.1 µM | [19] 33.8 µM
